Results on eight compounds are retold here after paper PMC12750222, “Cytosporone B Affects ATP Production of Trypanosoma cruzi: A Lethal Action Investigation” (ACS Omega, 2025).

Entries after “also recorded” stand apart in the source; their conditions may differ. Like-named read-outs stand apart in the source and are kept apart here.

Series [1] deals with T. cruzi trypomastigotes (Y strain). Nature of the series: Antitrypomastigote assay (resazurin). Type of series: cell-based, Trypanosoma cruzi. As to conditions: 24 h + 24 h resazurin, tested up to 150 μM, NA = no activity, read-out: IC50 (μM) ± SD Trypomastigote. Here is the method: (§1) Murine conjunctive cells (NCTC clone 929, ATCC) and rhesus monkey kidney cells (LLC-MK2, ATCC CCL 7) were maintained in RPMI-1640 supplemented with 10% fetal bovine serum (FBS) at 37 °C in 5% CO2 humidified incubator. Peritoneal macrophages were collected by washing the peritoneal cavity of BALB/c mice with RPMI-1640 medium (Sigma-Aldrich) supplemented with 10% FBS, and were maintained at 37 °C in a 5% CO2 humidified incubator. T. cruzi trypomastigotes (Y strain) were cultivated by continuous in vitro passage in LLC-MK2, in RPMI-1640 supplemented with 2% FBS at 37 °C in 5% CO2 humidified incubator. Antitrypomastigote activity was evaluated in vitro using trypomastigotes obtained from infected LLC-MK2 cell cultures. The motile trypomastigotes, spontaneously released into the supernatant, were collected by centrifugation (2100g for 10 min), washed three times with cold PBS to remove cell debris and culture medium, and finally resuspended in fresh RPMI-1640 medium.
Antitrypomastigote activity was evaluated in vitro using trypomastigotes obtained from infected LLC-MK2 cell cultures. Briefly, […] (1 × 10^6 cells/well) were incubated with increasing concentrations of the test compounds (up to 150 μM) in RPMI-1640 medium supplemented with 10% fetal bovine serum, at 37 °C in a humidified atmosphere containing 5% CO2 for 24 h. After incubation, resazurin sodium salt (final concentration 44 μM) was added to each well, and the plates were further incubated for an additional 24 h under the same conditions. Resazurin is a redox-sensitive dye that is reduced by metabolically active parasites to the fluorescent compound resorufin, allowing the quantification of viable parasites.
The conversion of resazurin to resorufin was measured spectrophotometrically by reading the absorbance at 570 nm. The percentage of parasite viability was calculated relative to untreated controls. Benznidazole was used as a standard drug, and wells containing only medium served as negative controls.

The subject of series [2] is T. cruzi intracellular amastigotes. In words: Antiamastigote assay in infected peritoneal macrophages (Giemsa, infection index). Type of series: cell-based, Trypanosoma cruzi. The following applies: for IC50: 48 h, intracellular amastigotes in BALB/c peritoneal macrophages, tested up to 60 μM, NA = no activity, read-out: IC50 (μM) ± SD Amastigote; for SI (selectivity index): ratio between CC50 in NCTC cells and IC50 in intracellular amastigotes. Here is the method: as §1
Macrophages were seeded in 16-well chamber slides (NUNC Thermo Fisher Scientific, USA) and after 24 h infected with trypomastigotes (1:5, host cell/parasite ratio) for 2 h. Subsequently, infected cells were incubated with increasing concentrations of the compounds (up to 60 μM) for 48 h at 37 °C in 5% CO2 humidified incubator. After treatment, the cells were fixed and stained with Giemsa, and the slides were analyzed under a digital light microscope (EVOS M500, Thermo Fisher Scientific, USA). The infection index was determined by counting 200 macrophages and calculating the percentage of infected cells multiplied by the average number of amastigotes per infected macrophage. Benznidazole was used as a standard reference drug.

Series [3] is described as follows: Cytotoxic assay (MTT). Type of series: cell-based, Murine. The following applies: mouse, NCTC clone 929 fibroblast cells, NCTC clone 929 cells, highest tested concentration 200 μM. As for the experimental part: as §1
(§2) Cytotoxicity was evaluated in vitro using fibroblast cells (NCTC clone 929) seeded in a 96-well plate (6 × 10^4/well). The compounds were diluted in DMSO (30 mM) and diluted in RPMI-1640 medium without phenol red compounds using serial dilution from 1.56 to–200 μM. The compounds were incubated with the cells for 48 h at 37 °C in 5% CO2 humidified incubator. The MTT assay was used for viability determination. After the final incubation period, 20 μL of MTT (5 mg/mL) was added for 4 h and the plate was kept at 37 °C in 5% CO2 humidified incubator. To solubilize the formazan, 80 μL of SDS (10% v/v) was added and the microplate was incubated for 24 h at 25 °C. The microplate was read at 570 nm in a plate spectrophotometer (Varioskan, Thermo, USA).

In series [4] the test system is T. cruzi. More on the design: method as in literature. As to conditions: T. cruzi treated with benznidazole; ref literature; cited from earlier work.
For series [5], the system named is fibroblast cells (NCTC clone 929). Nature of the series: Cytotoxic assay (MTT). Type of series: cell-based, Murine. The following applies: NCTC clone 929 cells, 48 h, highest tested concentration 200 μM. Here is the method:
as §1, §2

The subject of series [6] is plants. Also on record: method as in literature. As to conditions: ref literature; cited from earlier work.
Series [7] concerns Staphylococcus aureus. More on the design: method as in literature. As to conditions: ref literature; cited from earlier work.
Series [8] concerns Enterococcus faecalis. More on the design: method as in literature. As to conditions: ref literature; cited from earlier work.
Series [9] has as its system Escherichia coli. More on the design: method as in literature. The following applies: ref literature; cited from earlier work.
Series [10] concerns Candida albicans. Also on record: method as in literature. The following applies: ref literature; cited from earlier work.
The subject of series [11] is T. cruzi trypomastigotes. Nature of the series: Mitochondrial membrane electric potential (JC-1, flow cytometry). Type of series: cell-based, Trypanosoma cruzi. As to conditions: 55 μM, 1 and 2 h, JC-1, ratio BL2/BL1. Here is the method: Mitochondrial membrane potential (ΔΨm) was evaluated using the JC-1 fluorescent probe, which accumulates in mitochondria in a potential-dependent manner, forming red-fluorescent aggregates in healthy cells with high ΔΨm and remaining as green-fluorescent monomers in cells with depolarized mitochondrial membranes. Trypomastigotes (2 × 10^6/well) were incubated with Csn-B (6) (55 μM) for 1 and 2 h, at 37 °C in HBSS + Glu. Carbonyl cyanide m-chlorophenyl hydrazone (CCCP) 100 μM was used as a positive control. After this period, parasites were washed in HBSS + Glu and resuspended with JC-1 dye (10 μM) in the dark for 10 min at 37 °C. Parasites were analyzed by flow cytometry (Attune NxT Flow Cytometer; Thermo Fisher Scientific, USA). ,
(§3) 3 Evaluation of mitochondrial membrane electric potential (ΔΨm) and ATP levels. T. cruzi trypomastigotes were incubated for 1 or 2 h with Cytosporone B (6) (55 μM). (A) ΔΨm was investigated with JC-1 dye by flow cytometry and reported as the ratio between the emission channels BL2/BL1. (B) ATP concentration was measured by luciferin/luciferase luminescent kit in a plate reader luminometer. In both analyses, untreated and treated […] with CCCP were used to achieve minimal and maximal depolarization, respectively. A representative experiment is shown. ***p < 0.005 and **p < 0.05.

Series [12] deals with T. cruzi trypomastigotes. In words: ATP levels (luciferin/luciferase). Type of series: cell-based, Trypanosoma cruzi. As to conditions: 55 μM, 1 and 2 h. Here is the method: Intracellular ATP levels were measured using the ATP Determination Kit (Molecular Probes, Thermo Fisher Scientific, USA), based on the luciferin–luciferase bioluminescence reaction, in which the emitted light intensity is directly proportional to the ATP concentration present in the sample. Trypomastigotes (2 × 10^6/well) were treated with Csn-B (6) (55 μM) for 1 and 2 h. Carbonyl cyanide m-chlorophenyl hydrazone (CCCP) 100 μM was used as a positive control. After treatment, trypomastigotes were lysed using HBSS + Glu with 0.5% Triton X-100 and mixed with a standard reaction buffer (ATP Determination kit, Molecular Probes, USA) containing DTT (1 mM), luciferin (0.5 mM), and firefly luciferase (1.25 μg/mL). ,
as §3

Series [13] concerns bacteria. Also on record: method as in literature. The following applies: ref literature; cited from earlier work.
The test system of series [14] is Nur77. Also on record: method as in PMID 18690216. The following applies: cited from earlier work.
Series [15] concerns human lung fibroblast MRC-5 cells. More on the design: method as in PMID 29660469. As to conditions: cited from earlier work.
Where [16] appears, read: Trypanosoma cruzi, Peritoneal macrophage, in Mus musculus.

In the case of `O=C(Cn1ccnc1[N+](=O)[O-])NCc1ccccc1` [Benznidazole, reference compound], the half-inhibitory concentration (IC50) in series [1] (Trypanosoma cruzi) turned out to be 17.7 ± 1.9 µM. In addition, in series [2] (setting [16]), the half-maximal inhibitory concentration (IC50) was found to be 5 ± 1.5 µM. The “SI (selectivity index)” value in series [2] is 38.1. For the same compound, the 50% cytotoxic concentration (CC50) at 48 h in series [3] was 191 ± 13.4 µM. For the same compound, in series [4], the mitochondrial membrane potential entry was “depolarization” and the respiratory chain entry is recorded as “respiratory chain inhibition”.
The compound `COC(=O)Cc1cc(O)cc(O)c1C(=O)CCCCCC(C)=O` [Compound 3, Dothiorelone P] had a CC50 in series [5] of over 200 µM.
Consider `CCCCCCCC(=O)c1c(O)cc(O)cc1CC(=O)O` [Compound 5, Cytosporone A], for which the IC50 in series [2] worked out at 29.9 ± 0.5 µM. The half-maximal cytotoxic concentration (CC50) in [5] was over 200 µM. In addition, in series [6], the “inhibition for germination and growth of plants” value is reported as “inhibition”. Moreover, the antimicrobial activity result in series [7], in [8], in series [9] and in [10] was “antimicrobial activity” throughout.
`CCCCCCCC(=O)c1c(O)cc(O)cc1CC(=O)OCC` [Compound 6, Cytosporone B]: the 50% inhibitory concentration (IC50) in [1] (Trypanosoma cruzi) is 36.5 ± 1.9 µM; in series [2] (setting [16]), under 10 µM; in series [2], 9.1 ± 3.2 µM. For the same compound, the “SI (selectivity index)” value in [2] is reported as over 22.0. The compound also displayed a CC50 at 48 h in [3] of over 200 µM. For the same compound, the “mitochondrial membrane electric potential (ΔΨm)” value in [11] is on record as “depolarization of the membrane”; in series [11] (listed as Csn-B) it was “depolarization of the mitochondrial membrane potential; also recorded: significant depolarization”. Besides, the ATP levels entry is “ATP decrease” in [12] and “decrease in the ATP levels; also recorded: significant decrease in ATP levels; also recorded: significant reduction in intracellular ATP levels” in [12] (listed as Csn-B). Also, in series [13], the antibacterial activity entry was “potent antibacterial activity”. For the same compound, the antimicrobial activity entry in [7], in series [8], in series [9] and in series [10] was “antimicrobial activity” throughout. Besides, the “action on Nur77 nuclear receptor” value in series [14] is listed as “agonist”.
In the case of `C=C1[C@@H](C)[C@H]2[C@H](Cc3ccccc3)NC(=O)[C@]23[C@H](OC(C)=O)/C=C/[C@](C)(O)C[C@@H](C)C/C=C/[C@H]3[C@@H]1O` [Compound 7, Cytochalasin H], in series [1], the 50% inhibitory concentration (IC50) was 47.9 ± 6.3 µM. The compound further gave a CC50 in series [5] of over 200 µM.
With Dothiorelone A [Compound 1], the 50% cytotoxic concentration (CC50) in series [5] was over 200 µM.
As for Dothiorelone B [Compound 2], the CC50 in series [5] is over 200 µM.
For Dothiorelone Q [Compound 4], the IC50 in [2] stood at 43 ± 9 µM. Besides, the CC50 in series [5] was over 200 µM. The “inhibition of TFG-β induced activation of MRC-5 cells” value in series [15] is given as “inhibition”.
